# Measurements from PubChem BioAssay (NCI).
#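 Exposure lasted 48 hours, with cells grown in 96-well plates and compounds tested at five concentrations. At the TGI there is no net growth.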
# How the values were obtained:
# Experiment in all cases: NCI anticancer screen, dose series, 48 h
# MDA-MB-435 = tested on: MDA-MB-435
# HS 578T breast = tested on: HS 578T breast
# SW-620 colon = tested on: SW-620 colon
# RXF 393 renal = tested on: RXF 393 renal
# COLO 205 colon = tested on: COLO 205 colon
# SF-295 CNS = tested on: SF-295 CNS
# MDA-MB-231 breast = tested on: MDA-MB-231 breast
# U251 CNS = tested on: U251 CNS
# OVCAR-5 ovarian = tested on: OVCAR-5 ovarian
# KM12 colon = tested on: KM12 colon
# SN12C renal = tested on: SN12C renal
# HL-60(TB) leukemia = tested on: HL-60(TB) leukemia
# NCI-H23 lung = tested on: NCI-H23 lung
# CAKI-1 renal = tested on: CAKI-1 renal
# NCI-H460 lung = tested on: NCI-H460 lung
# BT-549 breast = tested on: BT-549 breast
# HCC-2998 colon = tested on: HCC-2998 colon
# SK-MEL-5 melanoma = tested on: SK-MEL-5 melanoma
# HOP-92 NSCLC = tested on: HOP-92 NSCLC
# MOLT-4 leukemia = tested on: MOLT-4 leukemia
# OVCAR-3 ovarian = tested on: OVCAR-3 ovarian
# ACHN renal = tested on: ACHN renal
# HCT-15 colon = tested on: HCT-15 colon
# SNB-19 CNS = tested on: SNB-19 CNS
# IGROV1 ovarian = tested on: IGROV1 ovarian
# MDA-N = tested on: MDA-N
# T-47D breast = tested on: T-47D breast
# NCI-H522 lung = tested on: NCI-H522 lung
# A549 NSCLC = tested on: A549 NSCLC
# EKVX NSCLC = tested on: EKVX NSCLC
# SR leukemia = tested on: SR leukemia
# HT29 colon = tested on: HT29 colon
# NCI/ADR-RES ovarian = tested on: NCI/ADR-RES ovarian
# HCT-116 colon = tested on: HCT-116 colon
# OVCAR-4 ovarian = tested on: OVCAR-4 ovarian
# CCRF-CEM leukemia = tested on: CCRF-CEM leukemia
# DU-145 prostate = tested on: DU-145 prostate
# SF-268 CNS = tested on: SF-268 CNS
# A498 renal = tested on: A498 renal
# HOP-62 NSCLC = tested on: HOP-62 NSCLC
# UO-31 renal = tested on: UO-31 renal
# PC-3 prostate = tested on: PC-3 prostate
# SK-MEL-28 melanoma = tested on: SK-MEL-28 melanoma
# 786-0 renal = tested on: 786-0 renal
# M14 melanoma = tested on: M14 melanoma
# OVCAR-8 ovarian = tested on: OVCAR-8 ovarian
# UACC-62 melanoma = tested on: UACC-62 melanoma
# LOX IMVI melanoma = tested on: LOX IMVI melanoma
# MCF7 breast = tested on: MCF7 breast
# SK-MEL-2 melanoma = tested on: SK-MEL-2 melanoma
# UACC-257 melanoma = tested on: UACC-257 melanoma
# TK-10 renal = tested on: TK-10 renal
# SF-539 CNS = tested on: SF-539 CNS
# K-562 leukemia = tested on: K-562 leukemia
# SK-OV-3 ovarian = tested on: SK-OV-3 ovarian
# SNB-75 CNS = tested on: SNB-75 CNS
# NCI-H226 lung = tested on: NCI-H226 lung
# RPMI-8226 leukemia = tested on: RPMI-8226 leukemia
# MALME-3M melanoma = tested on: MALME-3M melanoma
structure (smiles),measurement,setting,value
CC(C)(C)c1cc2c(O)c(c1)C(c1ccccc1)c1cc(C(C)(C)C)cc(c1O)Cc1cc(C(C)(C)C)cc(c1O)C(c1ccccc1)c1cc(C(C)(C)C)cc(c1O)C2 (stereo not given),TGI,MDA-MB-435,> 100 µM
same,TGI,HS 578T breast,> 100 µM
same,TGI,SW-620 colon,> 100 µM
same,TGI,RXF 393 renal,> 100 µM
same,TGI,COLO 205 colon,> 100 µM
same,TGI,SF-295 CNS,> 100 µM
same,TGI,MDA-MB-231 breast,> 100 µM
same,TGI,U251 CNS,> 100 µM
same,TGI,OVCAR-5 ovarian,> 100 µM
same,TGI,KM12 colon,> 100 µM
same,TGI,SN12C renal,> 100 µM
same,TGI,HL-60(TB) leukemia,> 100 µM
same,TGI,NCI-H23 lung,> 100 µM
same,TGI,CAKI-1 renal,> 100 µM
same,TGI,NCI-H460 lung,> 100 µM
same,TGI,BT-549 breast,> 100 µM
same,TGI,HCC-2998 colon,> 100 µM
same,TGI,SK-MEL-5 melanoma,> 100 µM
same,TGI,HOP-92 NSCLC,> 100 µM
same,TGI,MOLT-4 leukemia,> 100 µM
same,TGI,OVCAR-3 ovarian,> 100 µM
same,TGI,ACHN renal,> 100 µM
same,TGI,HCT-15 colon,> 100 µM
same,TGI,SNB-19 CNS,> 100 µM
same,TGI,IGROV1 ovarian,> 100 µM
same,TGI,MDA-N,> 100 µM
same,TGI,T-47D breast,> 100 µM
same,TGI,NCI-H522 lung,> 100 µM
same,TGI,A549 NSCLC,> 100 µM
same,TGI,EKVX NSCLC,> 100 µM
same,TGI,SR leukemia,> 100 µM
same,TGI,HT29 colon,> 100 µM
same,TGI,NCI/ADR-RES ovarian,> 100 µM
same,TGI,HCT-116 colon,> 100 µM
same,TGI,OVCAR-4 ovarian,> 100 µM
same,TGI,CCRF-CEM leukemia,> 100 µM
same,TGI,DU-145 prostate,> 100 µM
same,TGI,SF-268 CNS,> 100 µM
same,TGI,A498 renal,> 100 µM
same,TGI,HOP-62 NSCLC,> 100 µM
same,TGI,UO-31 renal,> 100 µM
same,TGI,PC-3 prostate,> 100 µM
same,TGI,SK-MEL-28 melanoma,> 100 µM
same,TGI,786-0 renal,> 100 µM
same,TGI,M14 melanoma,> 100 µM
same,TGI,OVCAR-8 ovarian,> 100 µM
same,TGI,UACC-62 melanoma,> 100 µM
same,TGI,LOX IMVI melanoma,> 100 µM
same,TGI,MCF7 breast,> 100 µM
same,TGI,SK-MEL-2 melanoma,> 100 µM
same,TGI,UACC-257 melanoma,> 100 µM
same,TGI,TK-10 renal,> 100 µM
same,TGI,SF-539 CNS,> 100 µM
same,TGI,K-562 leukemia,> 100 µM
O=C(O)CCc1nc2c(n1Cc1ccccc1)C(=O)c1ccccc1C2=O,TGI,MDA-MB-435,35.8 µM
same,TGI,SK-OV-3 ovarian,> 100 µM
same,TGI,HS 578T breast,> 100 µM
same,TGI,SW-620 colon,> 100 µM
same,TGI,RXF 393 renal,> 100 µM
same,TGI,COLO 205 colon,> 100 µM
same,TGI,SF-295 CNS,> 100 µM
same,TGI,MDA-MB-231 breast,> 100 µM
same,TGI,U251 CNS,> 100 µM
same,TGI,OVCAR-5 ovarian,> 100 µM
same,TGI,KM12 colon,> 100 µM
same,TGI,SN12C renal,> 100 µM
same,TGI,HL-60(TB) leukemia,> 100 µM
same,TGI,NCI-H23 lung,> 100 µM
same,TGI,CAKI-1 renal,> 100 µM
same,TGI,NCI-H460 lung,> 100 µM
same,TGI,BT-549 breast,> 100 µM
same,TGI,HCC-2998 colon,> 100 µM
same,TGI,SK-MEL-5 melanoma,43.5 µM
same,TGI,HOP-92 NSCLC,66.4 µM
same,TGI,MOLT-4 leukemia,> 100 µM
same,TGI,OVCAR-3 ovarian,85.9 µM
same,TGI,ACHN renal,> 100 µM
same,TGI,HCT-15 colon,> 100 µM
same,TGI,SNB-19 CNS,> 100 µM
same,TGI,IGROV1 ovarian,> 100 µM
same,TGI,MDA-N,52.8 µM
same,TGI,T-47D breast,> 100 µM
same,TGI,NCI-H522 lung,72.1 µM
same,TGI,A549 NSCLC,> 100 µM
same,TGI,EKVX NSCLC,> 100 µM
same,TGI,SR leukemia,> 100 µM
same,TGI,HT29 colon,> 100 µM
same,TGI,NCI/ADR-RES ovarian,> 100 µM
same,TGI,HCT-116 colon,> 100 µM
same,TGI,OVCAR-4 ovarian,> 100 µM
same,TGI,SNB-75 CNS,> 100 µM
same,TGI,CCRF-CEM leukemia,> 100 µM
same,TGI,DU-145 prostate,> 100 µM
same,TGI,SF-268 CNS,> 100 µM
same,TGI,A498 renal,> 100 µM
same,TGI,HOP-62 NSCLC,> 100 µM
same,TGI,UO-31 renal,> 100 µM
same,TGI,NCI-H226 lung,> 100 µM
same,TGI,PC-3 prostate,> 100 µM
same,TGI,SK-MEL-28 melanoma,> 100 µM
same,TGI,786-0 renal,> 100 µM
same,TGI,RPMI-8226 leukemia,> 100 µM
same,TGI,M14 melanoma,50.7 µM
same,TGI,OVCAR-8 ovarian,> 100 µM
same,TGI,UACC-62 melanoma,> 100 µM
same,TGI,LOX IMVI melanoma,> 100 µM
same,TGI,MCF7 breast,> 100 µM
same,TGI,SK-MEL-2 melanoma,78.1 µM
same,TGI,UACC-257 melanoma,> 100 µM
same,TGI,TK-10 renal,> 100 µM
same,TGI,SF-539 CNS,> 100 µM
same,TGI,K-562 leukemia,> 100 µM
Nc1ccccc1C(=O)CCc1c[nH]c2ccccc12,TGI,MDA-MB-435,> 100 µM
same,TGI,SK-OV-3 ovarian,> 100 µM
same,TGI,HS 578T breast,> 100 µM
same,TGI,SW-620 colon,> 100 µM
same,TGI,SF-295 CNS,> 100 µM
same,TGI,MDA-MB-231 breast,> 100 µM
same,TGI,U251 CNS,> 100 µM
same,TGI,OVCAR-5 ovarian,> 100 µM
same,TGI,KM12 colon,> 100 µM
same,TGI,SN12C renal,> 100 µM
same,TGI,HL-60(TB) leukemia,> 100 µM
same,TGI,NCI-H460 lung,> 100 µM
same,TGI,BT-549 breast,> 100 µM
same,TGI,HCC-2998 colon,> 100 µM
same,TGI,MALME-3M melanoma,> 100 µM
same,TGI,HOP-92 NSCLC,55.2 µM
same,TGI,MOLT-4 leukemia,> 100 µM
same,TGI,OVCAR-3 ovarian,> 100 µM
same,TGI,ACHN renal,> 100 µM
same,TGI,HCT-15 colon,> 100 µM
same,TGI,SNB-19 CNS,> 100 µM
same,TGI,IGROV1 ovarian,> 100 µM
same,TGI,MDA-N,> 100 µM
same,TGI,T-47D breast,> 100 µM
same,TGI,NCI-H522 lung,> 100 µM
same,TGI,A549 NSCLC,> 100 µM
same,TGI,EKVX NSCLC,> 100 µM
same,TGI,SR leukemia,> 100 µM
same,TGI,HT29 colon,> 100 µM
same,TGI,NCI/ADR-RES ovarian,> 100 µM
same,TGI,HCT-116 colon,> 100 µM
same,TGI,OVCAR-4 ovarian,> 100 µM
same,TGI,SNB-75 CNS,> 100 µM
same,TGI,DU-145 prostate,> 100 µM
same,TGI,SF-268 CNS,> 100 µM
same,TGI,A498 renal,> 100 µM
same,TGI,HOP-62 NSCLC,> 100 µM
same,TGI,UO-31 renal,> 100 µM
same,TGI,NCI-H226 lung,> 100 µM
same,TGI,PC-3 prostate,> 100 µM
same,TGI,SK-MEL-28 melanoma,> 100 µM
same,TGI,786-0 renal,> 100 µM
same,TGI,RPMI-8226 leukemia,> 100 µM
same,TGI,M14 melanoma,> 100 µM
same,TGI,OVCAR-8 ovarian,> 100 µM
same,TGI,UACC-62 melanoma,> 100 µM
same,TGI,LOX IMVI melanoma,> 100 µM
same,TGI,MCF7 breast,> 100 µM
same,TGI,SK-MEL-2 melanoma,> 100 µM
same,TGI,UACC-257 melanoma,> 100 µM
same,TGI,TK-10 renal,> 100 µM
same,TGI,SF-539 CNS,> 100 µM
same,TGI,K-562 leukemia,> 100 µM
